Measured values published in ChEMBL document CHEMBL1201862, “PubChem BioAssay data set” (2004).
Activity calls are given as the source filed them.

Experiments:
Nonstructural protein 1 = Nonstructural protein 1 (Influenza A virus, UniProt Q194T2); assay type: functional, Influenza A virus (A/California/07/2009(H1N1))
[1] = molecular target: T1, Mannose-6-phosphate isomerase (Homo sapiens, UniProt P34949); assay: human PMI inhibitors, high substrate, primary screen, biochemical, fluorescence intensity, high mannose 6-phosphate (AID 1220)
T1 sequence (P34949 whole entry): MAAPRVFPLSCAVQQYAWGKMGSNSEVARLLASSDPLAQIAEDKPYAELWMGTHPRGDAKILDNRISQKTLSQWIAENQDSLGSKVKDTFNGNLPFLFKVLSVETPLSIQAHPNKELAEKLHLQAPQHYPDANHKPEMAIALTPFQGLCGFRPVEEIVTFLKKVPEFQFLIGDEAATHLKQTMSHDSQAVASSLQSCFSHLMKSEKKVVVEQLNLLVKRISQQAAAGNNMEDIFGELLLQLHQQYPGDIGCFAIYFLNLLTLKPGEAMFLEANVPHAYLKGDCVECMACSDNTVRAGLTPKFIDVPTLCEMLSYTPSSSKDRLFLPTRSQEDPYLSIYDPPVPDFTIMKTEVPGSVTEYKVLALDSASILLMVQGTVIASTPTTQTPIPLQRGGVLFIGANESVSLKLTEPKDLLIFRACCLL

[2] = growth suppression of beta-catenin-knockout colon cells, dose response, cell-based, HCT116, human colon tumor (AID 1045); assay type: functional;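 note: HCT116 colon tumor cells with beta catenin knocked out; cells exposed to compound for 60 hours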
[3] = HeLa cell cytotoxicity, dose response, cytotoxicity control for MgcRacGAP inhibitor project (AID 624300); assay type: functional
Vero = Vero cell cytotoxicity, cytotoxicity control for flavivirus capping enzyme inhibitors (AID 588742); assay type: functional; details: Chlorocebus sabaeus
[4] = molecular target: T2, Rac GTPase-activating protein 1 (Homo sapiens, UniProt Q9H0H5); assay: MgcRacGAP GTPase-activating activity inhibitors, confirmation, biochemical, ADP Hunter fluorescence, primary and confirmatory (AID 624330); assay type: functional
T2 sequence (Q9H0H5 whole entry): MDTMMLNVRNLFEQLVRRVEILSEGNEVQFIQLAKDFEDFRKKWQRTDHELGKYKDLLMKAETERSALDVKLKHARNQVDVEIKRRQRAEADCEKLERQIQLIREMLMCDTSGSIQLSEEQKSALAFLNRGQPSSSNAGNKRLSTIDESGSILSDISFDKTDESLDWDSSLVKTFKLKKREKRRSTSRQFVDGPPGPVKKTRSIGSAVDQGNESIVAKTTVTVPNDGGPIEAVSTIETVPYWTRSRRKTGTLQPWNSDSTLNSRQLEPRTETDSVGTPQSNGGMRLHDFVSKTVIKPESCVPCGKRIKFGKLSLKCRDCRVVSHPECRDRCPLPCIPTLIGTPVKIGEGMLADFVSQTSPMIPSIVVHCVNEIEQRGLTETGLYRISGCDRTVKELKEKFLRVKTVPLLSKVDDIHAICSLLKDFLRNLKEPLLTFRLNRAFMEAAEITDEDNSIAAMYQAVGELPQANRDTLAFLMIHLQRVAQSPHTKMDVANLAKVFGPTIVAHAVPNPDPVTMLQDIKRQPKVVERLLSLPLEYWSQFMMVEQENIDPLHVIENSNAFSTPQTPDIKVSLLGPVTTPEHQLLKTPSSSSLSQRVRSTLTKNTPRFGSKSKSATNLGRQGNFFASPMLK

Galanin receptor type 2 = Galanin receptor type 2 (Homo sapiens, UniProt O43603); assay: Dose Response cell-based high-throughput screening assay to identify antagonists of galanin receptor 2 (GALR2). [Related pubchem assays: 828, 866 ]; assay type: functional
Chain of Galanin receptor type 2 (O43603 whole entry): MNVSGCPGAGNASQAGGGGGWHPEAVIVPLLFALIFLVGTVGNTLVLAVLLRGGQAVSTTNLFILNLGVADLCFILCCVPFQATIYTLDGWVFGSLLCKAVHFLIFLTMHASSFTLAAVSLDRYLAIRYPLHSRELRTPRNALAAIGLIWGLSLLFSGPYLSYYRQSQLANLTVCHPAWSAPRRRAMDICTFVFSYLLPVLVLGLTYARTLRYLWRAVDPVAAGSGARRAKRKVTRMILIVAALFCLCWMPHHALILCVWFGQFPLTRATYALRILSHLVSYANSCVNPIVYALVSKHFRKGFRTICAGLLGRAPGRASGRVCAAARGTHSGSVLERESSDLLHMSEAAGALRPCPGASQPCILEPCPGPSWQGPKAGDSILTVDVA

[5] = molecular target: T3, Histone-lysine N-methyltransferase NSD2 (Homo sapiens, UniProt O96028); assay type: biochemical
T3 sequence (O96028 whole entry): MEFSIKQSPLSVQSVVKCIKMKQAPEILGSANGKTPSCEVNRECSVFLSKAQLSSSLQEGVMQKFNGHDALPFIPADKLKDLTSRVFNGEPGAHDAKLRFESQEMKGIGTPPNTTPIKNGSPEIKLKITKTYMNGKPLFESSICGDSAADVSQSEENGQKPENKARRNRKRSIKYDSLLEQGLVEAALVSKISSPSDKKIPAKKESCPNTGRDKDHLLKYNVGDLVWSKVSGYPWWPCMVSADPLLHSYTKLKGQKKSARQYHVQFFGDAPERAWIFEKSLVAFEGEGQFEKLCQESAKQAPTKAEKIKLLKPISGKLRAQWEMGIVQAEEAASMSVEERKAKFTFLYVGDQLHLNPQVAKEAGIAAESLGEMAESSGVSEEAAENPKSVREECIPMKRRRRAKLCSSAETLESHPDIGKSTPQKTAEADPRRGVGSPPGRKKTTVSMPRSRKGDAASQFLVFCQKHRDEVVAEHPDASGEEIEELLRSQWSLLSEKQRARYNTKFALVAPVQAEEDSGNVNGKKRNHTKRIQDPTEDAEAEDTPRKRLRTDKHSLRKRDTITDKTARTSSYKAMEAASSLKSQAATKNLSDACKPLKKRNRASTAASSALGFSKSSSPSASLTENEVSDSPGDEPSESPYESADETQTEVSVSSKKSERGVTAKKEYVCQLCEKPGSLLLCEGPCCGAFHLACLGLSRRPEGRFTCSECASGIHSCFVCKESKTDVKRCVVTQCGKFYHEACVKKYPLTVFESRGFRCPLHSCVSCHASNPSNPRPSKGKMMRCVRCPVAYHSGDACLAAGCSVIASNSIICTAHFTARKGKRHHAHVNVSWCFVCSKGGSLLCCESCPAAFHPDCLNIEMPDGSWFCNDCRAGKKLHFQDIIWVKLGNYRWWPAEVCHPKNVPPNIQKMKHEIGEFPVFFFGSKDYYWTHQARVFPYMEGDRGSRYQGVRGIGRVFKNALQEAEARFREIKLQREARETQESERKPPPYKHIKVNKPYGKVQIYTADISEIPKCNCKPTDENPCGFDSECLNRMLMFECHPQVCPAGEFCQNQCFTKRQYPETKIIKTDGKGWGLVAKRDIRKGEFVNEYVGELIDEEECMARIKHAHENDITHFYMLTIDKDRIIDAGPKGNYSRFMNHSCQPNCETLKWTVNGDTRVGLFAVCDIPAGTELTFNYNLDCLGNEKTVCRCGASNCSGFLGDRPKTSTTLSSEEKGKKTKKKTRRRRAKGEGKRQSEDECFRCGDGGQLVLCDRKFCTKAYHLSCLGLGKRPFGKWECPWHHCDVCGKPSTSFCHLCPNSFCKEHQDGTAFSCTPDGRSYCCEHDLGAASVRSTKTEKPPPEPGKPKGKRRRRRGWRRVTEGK

[6] = growth suppression of PTEN-null colon cells, dose response, cell-based, HCT116 PTEN knockout (AID 1047); assay type: functional;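 note: HCT116 colon tumor cells with PTEN knocked out; cells exposed to compound for 60 hours before readout; potency for loss of cell viability measured by luminescence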
[7] = inhibitors of Bluetongue virus cytopathic effect, confirmation, arbovirus, BSR cells (AID 1250); assay type: functional;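 note: protection from viral cytopathic effect measured as cell viability by ATP luminescence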
[8] = molecular target: T4, Neuropeptide Y receptor type 2 (Homo sapiens, UniProt P49146); assay type: functional, cell-based;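 note: HEK293 cells expressing the receptor and a CNG channel; stimulus was NPY near EC95 followed by isoproterenol to raise cAMP; antagonist potency measured as restoring cAMP signal that NPY suppresses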
T4 sequence (P49146 whole entry): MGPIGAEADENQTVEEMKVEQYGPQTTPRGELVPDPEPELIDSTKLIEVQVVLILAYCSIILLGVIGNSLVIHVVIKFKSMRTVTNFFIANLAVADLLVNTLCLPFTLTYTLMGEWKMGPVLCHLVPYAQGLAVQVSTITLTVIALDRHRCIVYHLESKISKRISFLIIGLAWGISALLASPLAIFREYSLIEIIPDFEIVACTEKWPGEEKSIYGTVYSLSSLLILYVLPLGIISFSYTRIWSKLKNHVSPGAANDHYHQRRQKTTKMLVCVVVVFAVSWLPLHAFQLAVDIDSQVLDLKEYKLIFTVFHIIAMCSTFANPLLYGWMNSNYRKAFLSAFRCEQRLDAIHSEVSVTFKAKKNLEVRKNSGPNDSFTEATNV

[9] = molecular target: T5, Neuropeptide Y receptor type 1 (Homo sapiens, UniProt P25929); assay type: functional;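 note: HEK293 cells with a CNG channel challenged with NPY then isoproterenol; potency as antagonist that reverses NPY suppression of cAMP signal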
T5 sequence (P25929 whole entry): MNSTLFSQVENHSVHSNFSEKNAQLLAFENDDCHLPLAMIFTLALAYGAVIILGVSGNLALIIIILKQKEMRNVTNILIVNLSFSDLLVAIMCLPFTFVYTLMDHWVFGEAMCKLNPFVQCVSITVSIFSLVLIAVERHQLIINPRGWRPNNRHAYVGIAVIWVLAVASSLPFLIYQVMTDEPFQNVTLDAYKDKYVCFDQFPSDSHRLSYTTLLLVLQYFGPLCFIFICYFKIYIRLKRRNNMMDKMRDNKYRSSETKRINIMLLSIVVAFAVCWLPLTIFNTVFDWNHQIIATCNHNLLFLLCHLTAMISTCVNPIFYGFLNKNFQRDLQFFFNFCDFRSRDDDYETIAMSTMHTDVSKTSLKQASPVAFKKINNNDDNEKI

[10] = molecular target: Epstein-Barr nuclear antigen 1 (Epstein-Barr virus (strain B95-8) (HHV-4) (Human herpesvirus 4), UniProt P03211); assay: EBNA-1 inhibitors, dose response, biochemical, fluorescence polarization, 1536-well (AID 2381); parameters: species or system human gammaherpesvirus 4;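 note: fluorescence polarization of a Cy5 DNA probe bound by EBNA-1 protein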
Chain of Epstein-Barr nuclear antigen 1 (P03211 whole entry): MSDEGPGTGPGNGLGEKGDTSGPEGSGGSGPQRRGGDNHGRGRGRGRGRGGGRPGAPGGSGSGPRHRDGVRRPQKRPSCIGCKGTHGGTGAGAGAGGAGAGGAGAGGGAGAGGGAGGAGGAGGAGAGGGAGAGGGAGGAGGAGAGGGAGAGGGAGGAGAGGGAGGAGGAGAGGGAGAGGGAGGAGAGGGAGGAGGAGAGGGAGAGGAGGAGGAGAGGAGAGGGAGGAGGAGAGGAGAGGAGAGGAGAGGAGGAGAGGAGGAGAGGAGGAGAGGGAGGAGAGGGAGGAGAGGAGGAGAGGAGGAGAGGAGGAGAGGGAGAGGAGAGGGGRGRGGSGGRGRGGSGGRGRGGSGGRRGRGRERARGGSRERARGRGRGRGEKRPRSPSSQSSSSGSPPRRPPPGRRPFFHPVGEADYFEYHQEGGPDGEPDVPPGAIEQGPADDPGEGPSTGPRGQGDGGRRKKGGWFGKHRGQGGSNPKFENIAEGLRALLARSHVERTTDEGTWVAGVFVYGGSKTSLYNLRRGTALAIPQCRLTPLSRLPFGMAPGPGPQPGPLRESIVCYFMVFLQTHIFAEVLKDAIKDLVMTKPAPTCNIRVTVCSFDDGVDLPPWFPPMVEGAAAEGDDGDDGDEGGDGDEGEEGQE

[11] = molecular target: Lytic switch protein BZLF1 (Epstein-Barr virus (strain B95-8) (HHV-4) (Human herpesvirus 4), UniProt P03206); assay: EBV ZTA inhibitors, dose response, counter-screen for EBNA-1 inhibitor project, biochemical, fluorescence polarization, Epstein-Barr virus, 1536-well (AID 2377); parameters: species or system human gammaherpesvirus 4;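 note: fluorescence polarization of Cy5-labelled ZRE DNA probe bound by purified Zta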
Chain of Lytic switch protein BZLF1 (P03206 whole entry): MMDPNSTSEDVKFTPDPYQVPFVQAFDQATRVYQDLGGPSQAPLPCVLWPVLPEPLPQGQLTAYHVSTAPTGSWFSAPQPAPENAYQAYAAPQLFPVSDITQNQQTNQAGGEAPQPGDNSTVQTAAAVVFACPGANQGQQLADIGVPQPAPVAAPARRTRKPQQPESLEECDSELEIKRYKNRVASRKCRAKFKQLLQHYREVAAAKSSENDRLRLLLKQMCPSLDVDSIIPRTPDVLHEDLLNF

Chain of Nonstructural protein 1 (Q194T2 whole entry): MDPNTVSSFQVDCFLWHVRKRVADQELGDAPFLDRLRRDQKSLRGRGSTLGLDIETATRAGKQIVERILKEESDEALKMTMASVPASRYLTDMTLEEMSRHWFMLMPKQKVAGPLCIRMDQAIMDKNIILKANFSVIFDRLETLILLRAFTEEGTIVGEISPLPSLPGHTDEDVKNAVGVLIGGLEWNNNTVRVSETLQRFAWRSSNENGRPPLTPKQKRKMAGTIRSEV

CN(C)c1ccc(NC2=C(Cl)C(=O)c3ccccc3C2=O)cc1
IC50 (Nonstructural protein 1): 7.36 µM (active) | IC50 [1]: > 50 µM (not active) | EC50 [2]: 3.94 µM (active) | CC50 [3]: 16.1 µM (active) | CC50 (Vero): 32.2 µM (active) | IC50 [4]: 122 µM (active) | IC50 (Galanin receptor type 2): 8.84 µM (active) | AC50 [5]: 5.02 µM (active) | EC50 [6]: 6.29 µM (active)

CCOc1ccc2nc(NC(=O)C(CCSC)NS(=O)(=O)c3cccs3)sc2c1 (stereo unspecified)
IC50 (cells): 2.48 µM (active)

CCOc1ccc(CNc2ccc3c(c2)nc(C)n3C)cc1
CC50 (Vero): > 40 µM (active) | IC50 [7]: 26.6 µM (active)

N=c1n(Cc2ccc(Cl)cc2)c2ccccc2n1CC(O)c1ccco1 (stereo unspecified)
IC50 [8]: > 35 µM (not active) | IC50 [9]: > 35 µM (not active)

N#C/C(=C\c1cn(Cc2ccccc2F)c2ccccc12)C(=O)NCc1ccco1
IC50 [10]: 6.53 µM (active) | IC50 [11]: > 111 µM (not active)
